Measured values: patent US20240228506A1, “RIPK1 INHIBITORS AND METHODS OF USE” (Merck Sharp & Dohme LLC, priority 2021, published 2024)

Biological target: T1, GST-RIPK1 (recombinant GST-RIPK1 kinase domain (residues 1-327)) (Homo sapiens, UniProt Q13546)
T1 construct: recombinant GST-RIPK1 kinase domain (residues 1-327) enzyme; made in house; host or cells: baculovirus-transfected Sf21 insect cells
T1 sequence (Q13546 1-327): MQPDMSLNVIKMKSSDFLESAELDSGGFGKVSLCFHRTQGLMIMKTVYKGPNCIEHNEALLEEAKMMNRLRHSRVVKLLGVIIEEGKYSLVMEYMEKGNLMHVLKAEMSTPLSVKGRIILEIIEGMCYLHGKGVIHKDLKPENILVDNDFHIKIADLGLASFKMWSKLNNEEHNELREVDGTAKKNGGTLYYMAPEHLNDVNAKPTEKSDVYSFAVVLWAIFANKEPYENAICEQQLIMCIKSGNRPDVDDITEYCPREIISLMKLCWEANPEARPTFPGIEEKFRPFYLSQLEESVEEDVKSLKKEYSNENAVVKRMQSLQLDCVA
Test: RIPK1-ADP-Glo enzymatic assay
Format: biochemical
Settings: 25 nM GST-RIPK1, 300 μM ATP, 3 μM dephosphorylated-MBP; 30 minutes pre-incubation, 150 minutes reaction; ten-point titration
Procedure: The enzymatic activity of RIPK1 is measured using an assay derived from ADP-Glo kit (Promega™), which provides a luminescent-based ADP detection system. Specifically, the ADP generated by RIPK1 kinase is proportionally detected as luminescent signals in a homogenous fashion. In this context, the assessment of the inhibitory effect of small molecules (EC50) is measured by the effectiveness of the compounds to inhibit the ATP to ADP conversion by RIPK1. In this assay, the potency (EC50) of each compound was determined from a ten-point (1:3 serial dilution; top compound concentration of 100000 nM) titration curve using the following outlined procedure. To each well of a white ProxiPlus 384 well-plate, […] of compound (1% DMSO in final assay volume of 3 μL) was dispensed, followed by the addition of 2 μL of 1× assay buffer (25 mM Hepes 7.3, 20 mM MgCl2, 50 mM NaCl, 1 mM DTT, 0.005% Tween20, and 0.02% BSA) containing 37.5 nM of GST-RIPK1 (recombinant GST-RIPK1 kinase domain (residues 1-327) enzyme produced from baculovirus-transfected Sf21 cells: MW=62 kDa). Plates were placed in an ambient temperature humidified chamber for a 30 minutes pre-incubation with compound. Subsequently, each reaction was initiated by the addition of 1 μL 1×assay buffer containing 900 μM ATP and […]. The final reaction in each well of 3 μL consists of 25 nM of GST-RIPK1, 300 μM ATP, and 3 μM dephosphorylated-MBP. Kinase reactions were allowed to proceed for 150 minutes prior to adding ADP-Glo reagents per Promega's outlined kit protocol. Dose-response curves were generated by plotting percent effect (% product conversion; Y-axis) vs. Log10 compound concentrations (X-axis). EC50 values were calculated using a non-linear regression, four-parameters sigmoidal dose-response model.

SMILES | IC50
CC(C)(C(=O)N1C[C@@H]2C[C@H]1c1cncc(C#N)c1O2)C(F)F [Compound 1-1, (2S,5S)-4-(3,3-difluoro-2,2-dimethylpropanoyl)-2,3,4,5-tetrahydro-2,5-methanopyrido[3,4-f][1,4]oxazepine-9-carbonitrile] | 32 nM
N#Cc1cncc2c1O[C@H]1C[C@@H]2N(C(=O)C23CCC(C(F)(F)F)(CC2)C3)C1 [Compound 1-2, (2S,5S)-4-[4-(trifluoromethyl)bicyclo[2.2.1]heptane-1-carbonyl]-2,3,4,5-tetrahydro-2,5-methanopyrido[3,4-f][1,4]oxazepine-9-carbonitrile] | 7 nM
CC(C)(C)C(=O)N1C[C@@H]2C[C@H]1c1cncc(C#N)c1O2 [Compound 1-3, (2S,5S)-4-(2,2-dimethylpropanoyl)-2,3,4,5-tetrahydro-2,5-methanopyrido[3,4-f][1,4]oxazepine-9-carbonitrile] | 50 nM
CCC(C)(C)C(=O)N1C[C@@H]2C[C@H]1c1cncc(C#N)c1O2 [Compound 1-4, (2S,5S)-4-(2,2-dimethylbutanoyl)-2,3,4,5-tetrahydro-2,5-methanopyrido[3,4-f][1,4]oxazepine-9-carbonitrile] | 13 nM
CC1(C(=O)N2C[C@@H]3C[C@H]2c2cncc(C#N)c2O3)CCCC1 [Compound 1-5, (2S,5S)-4-(1-methylcyclopentane-1-carbonyl)-2,3,4,5-tetrahydro-2,5-methanopyrido[3,4-f][1,4]oxazepine-9-carbonitrile] | 22 nM
N#Cc1cncc2c1O[C@H]1C[C@@H]2N(C(=O)C23CCC(CC2)C3)C1 [Compound 1-6, (2S,5S)-4-(bicyclo[2.2.1]heptane-1-carbonyl)-2,3,4,5-tetrahydro-2,5-methanopyrido[3,4-f][1,4]oxazepine-9-carbonitrile] | 11 nM
N#Cc1cncc2c1O[C@H]1C[C@@H]2N(C(=O)C23CCC(F)(CC2)C3)C1 [Compound 1-7, (2S,5S)-4-(4-fluorobicyclo[2.2.1]heptane-1-carbonyl)-2,3,4,5-tetrahydro-2,5-methanopyrido[3,4-f][1,4]oxazepine-9-carbonitrile] | 18 nM
CC(C)(C(=O)N1C[C@@H]2C[C@H]1c1cncc(C#N)c1O2)C1CC1 [Compound 1-8, (2S,5S)-4-(2-cyclopropyl-2-methylpropanoyl)-2,3,4,5-tetrahydro-2,5-methanopyrido[3,4-f][1,4]oxazepine-9-carbonitrile] | 29 nM
CC(C)(C(=O)N1C[C@@H]2C[C@H]1c1cncc(C#N)c1O2)C(F)(F)F [Compound 1-9, (2S,5S)-4-(3,3,3-trifluoro-2,2-dimethylpropanoyl)-2,3,4,5-tetrahydro-2,5-methanopyrido[3,4-f][1,4]oxazepine-9-carbonitrile] | 20 nM
CC(F)(F)C(C)(C)C(=O)N1C[C@@H]2C[C@H]1c1cncc(C#N)c1O2 [Compound 1-10, (2S,5S)-4-(3,3-difluoro-2,2-dimethylbutanoyl)-2,3,4,5-tetrahydro-2,5-methanopyrido[3,4-f][1,4]oxazepine-9-carbonitrile] | 21 nM
N#Cc1cncc2c1O[C@H]1C[C@@H]2N(C(=O)C2(C(F)(F)F)CCC2)C1 [Compound 1-11, (2S,5S)-4-[1-(trifluoromethyl)cyclobutane-1-carbonyl]-2,3,4,5-tetrahydro-2,5-methanopyrido[3,4-f][1,4]oxazepine-9-carbonitrile] | 62 nM
CC1(C(=O)N2C[C@@H]3C[C@H]2c2cncc(C#N)c2O3)CCC1 [Compound 1-12, (2S,5S)-4-(1-methylcyclobutane-1-carbonyl)-2,3,4,5-tetrahydro-2,5-methanopyrido[3,4-f][1,4]oxazepine-9-carbonitrile] | 47 nM
N#Cc1cncc2c1O[C@H]1C[C@@H]2N(C(=O)C2(C(F)(F)F)CCCC2)C1 [Compound 1-13, (2S,5S)-4-[1-(trifluoromethyl)cyclopentane-1-carbonyl]-2,3,4,5-tetrahydro-2,5-methanopyrido[3,4-f][1,4]oxazepine-9-carbonitrile] | 130 nM
